Active and inactive are the calls of the source.
Key:
Staphylococcus aureus = assay: Inhibitors of Bacterial Quorum Sensing Structure Activity Relationship (SAR) Analysis: Dose Response Assay. [Related pubchem assays: 700, 527 ]; format: functional, organism-based
[1] = target: Acyl-homoserine lactone acylase PvdQ (Pseudomonas aeruginosa (strain LESB58), UniProt Q9I194); assay: P. aeruginosa PvdQ acylase inhibitors, dose response, biochemical, fluorescence, plate reader and imaging, cherry-picks (AID 493231)
Chain of Acyl-homoserine lactone acylase PvdQ (Q9I194 24-193 limits assumed): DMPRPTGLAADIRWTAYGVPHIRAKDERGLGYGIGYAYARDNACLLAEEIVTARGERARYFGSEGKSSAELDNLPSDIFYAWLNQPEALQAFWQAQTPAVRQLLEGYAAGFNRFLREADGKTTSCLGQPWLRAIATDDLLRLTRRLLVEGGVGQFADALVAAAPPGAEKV
Chain of Acyl-homoserine lactone acylase PvdQ (Q9I194 217-762 limits assumed): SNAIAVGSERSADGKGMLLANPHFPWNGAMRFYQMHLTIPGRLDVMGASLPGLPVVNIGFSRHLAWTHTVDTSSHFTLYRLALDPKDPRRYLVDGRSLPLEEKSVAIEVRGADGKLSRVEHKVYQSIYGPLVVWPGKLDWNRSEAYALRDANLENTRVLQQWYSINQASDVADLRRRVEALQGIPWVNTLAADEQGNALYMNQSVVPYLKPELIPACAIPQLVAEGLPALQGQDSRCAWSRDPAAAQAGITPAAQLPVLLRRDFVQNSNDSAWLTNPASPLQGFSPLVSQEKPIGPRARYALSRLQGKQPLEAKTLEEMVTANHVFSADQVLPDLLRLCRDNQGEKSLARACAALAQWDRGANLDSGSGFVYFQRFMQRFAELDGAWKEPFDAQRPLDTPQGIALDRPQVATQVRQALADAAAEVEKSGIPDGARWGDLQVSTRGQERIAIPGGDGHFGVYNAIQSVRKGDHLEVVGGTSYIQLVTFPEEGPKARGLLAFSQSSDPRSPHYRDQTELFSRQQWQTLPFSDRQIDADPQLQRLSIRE

[2] = target: Mothers against decapentaplegic homolog 3 (Homo sapiens, UniProt P84022); assay: Smad3 binding inhibitors, lysate ELISA, dose response, cell lysate, secondary confirmation, chemiluminescent ELISA, HEK293 lysate (AID 1058); format: functional
Chain of Mothers against decapentaplegic homolog 3 (P84022 whole entry): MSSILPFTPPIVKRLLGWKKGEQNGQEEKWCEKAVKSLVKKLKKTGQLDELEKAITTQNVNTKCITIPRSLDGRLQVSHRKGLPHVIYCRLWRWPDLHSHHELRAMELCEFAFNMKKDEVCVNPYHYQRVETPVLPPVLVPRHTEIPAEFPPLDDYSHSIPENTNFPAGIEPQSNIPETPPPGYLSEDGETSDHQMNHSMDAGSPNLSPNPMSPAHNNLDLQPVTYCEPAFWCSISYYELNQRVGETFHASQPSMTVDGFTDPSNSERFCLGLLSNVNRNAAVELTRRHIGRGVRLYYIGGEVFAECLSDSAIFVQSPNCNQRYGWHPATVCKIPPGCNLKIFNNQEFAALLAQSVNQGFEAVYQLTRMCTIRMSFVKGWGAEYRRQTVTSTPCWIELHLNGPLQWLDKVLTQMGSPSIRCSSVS

Wee1-like protein kinase = Wee1-like protein kinase (Homo sapiens, UniProt P30291); assay: G2/M cell cycle arrest in HeLa, late-stage follow-up, mechanism study for Wee1 degradation inhibitor project, FACS, panel member Wee1 Degradation (AID 2088)
Chain of Wee1-like protein kinase (P30291 whole entry): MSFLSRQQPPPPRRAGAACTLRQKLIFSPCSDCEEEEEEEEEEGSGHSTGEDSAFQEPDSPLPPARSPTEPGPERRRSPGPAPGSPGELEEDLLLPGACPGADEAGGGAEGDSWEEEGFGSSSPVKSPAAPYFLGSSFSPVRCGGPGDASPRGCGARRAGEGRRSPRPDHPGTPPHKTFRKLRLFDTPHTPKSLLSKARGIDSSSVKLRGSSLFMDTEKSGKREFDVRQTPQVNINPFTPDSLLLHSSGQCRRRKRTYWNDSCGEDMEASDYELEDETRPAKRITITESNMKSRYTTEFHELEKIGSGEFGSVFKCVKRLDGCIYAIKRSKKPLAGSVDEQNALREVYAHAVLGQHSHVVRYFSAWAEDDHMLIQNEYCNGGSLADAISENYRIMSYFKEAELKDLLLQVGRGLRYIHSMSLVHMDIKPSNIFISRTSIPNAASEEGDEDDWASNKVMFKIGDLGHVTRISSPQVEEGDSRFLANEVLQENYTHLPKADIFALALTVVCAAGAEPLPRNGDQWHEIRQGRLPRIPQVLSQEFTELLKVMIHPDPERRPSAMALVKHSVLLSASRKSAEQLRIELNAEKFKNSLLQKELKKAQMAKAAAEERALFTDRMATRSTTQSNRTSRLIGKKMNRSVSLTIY

[3] = target: G2/mitotic-specific cyclin-B1 (Homo sapiens, UniProt P14635); assay: G2/M cell cycle arrest in HeLa, late-stage follow-up, mechanism study for Wee1 degradation inhibitor project, FACS, panel member Cyclin B Degradation (AID 2088)
Chain of G2/mitotic-specific cyclin-B1 (P14635 whole entry): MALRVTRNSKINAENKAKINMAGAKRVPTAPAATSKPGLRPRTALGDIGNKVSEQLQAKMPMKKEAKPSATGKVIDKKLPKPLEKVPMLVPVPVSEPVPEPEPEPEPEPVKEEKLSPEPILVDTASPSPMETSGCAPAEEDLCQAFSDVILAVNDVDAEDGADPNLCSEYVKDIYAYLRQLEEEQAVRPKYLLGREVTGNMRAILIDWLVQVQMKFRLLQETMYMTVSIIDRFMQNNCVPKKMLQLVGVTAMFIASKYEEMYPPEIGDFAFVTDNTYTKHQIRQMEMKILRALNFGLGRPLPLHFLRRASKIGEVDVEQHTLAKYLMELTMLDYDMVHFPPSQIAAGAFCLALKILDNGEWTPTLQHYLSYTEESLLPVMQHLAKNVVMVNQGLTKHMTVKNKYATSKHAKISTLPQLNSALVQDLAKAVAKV

[4] = target: Cyclin-dependent kinase 5/CDK5 activator 1 (Homo sapiens, UniProt Q00535); assay: CDK5/p35 kinase inhibitors, dose response, biochemical, cherry-picked samples, set 2 (AID 504545)
Chain of Cyclin-dependent kinase 5/CDK5 activator 1 (Q00535 whole entry): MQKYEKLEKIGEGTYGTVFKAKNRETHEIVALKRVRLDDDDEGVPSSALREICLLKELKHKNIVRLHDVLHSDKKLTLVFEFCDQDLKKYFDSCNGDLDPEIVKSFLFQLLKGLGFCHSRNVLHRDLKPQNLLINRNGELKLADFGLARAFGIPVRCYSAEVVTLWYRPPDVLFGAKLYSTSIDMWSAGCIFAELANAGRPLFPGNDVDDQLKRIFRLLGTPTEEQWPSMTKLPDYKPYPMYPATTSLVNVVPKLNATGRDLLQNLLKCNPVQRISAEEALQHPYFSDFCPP
Chain of Cyclin-dependent kinase 5/CDK5 activator 1 (Q15078 whole entry, further chain): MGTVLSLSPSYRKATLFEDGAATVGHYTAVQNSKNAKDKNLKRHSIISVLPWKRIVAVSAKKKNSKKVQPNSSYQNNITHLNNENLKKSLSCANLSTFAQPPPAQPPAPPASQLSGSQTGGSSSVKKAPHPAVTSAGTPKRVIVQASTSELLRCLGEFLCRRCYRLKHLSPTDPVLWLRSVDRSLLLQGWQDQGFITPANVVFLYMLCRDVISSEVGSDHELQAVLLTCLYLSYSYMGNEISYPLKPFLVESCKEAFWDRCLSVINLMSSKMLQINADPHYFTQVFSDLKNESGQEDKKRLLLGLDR

[5] = target: Protein phosphatase methylesterase 1 (Homo sapiens, UniProt Q9Y570); assay: PME-1 inhibitor potency by in-gel ABPP, dose response, selectivity assay for PME-1 inhibitor project, cell lysate, mouse brain cytosol, FP-rhodamine, panel member PME-1 Assay Panel member description: Inhibition of endogenously expressed PME-1 (AID 2366)
Chain of Protein phosphatase methylesterase 1 (Q9Y570 whole entry): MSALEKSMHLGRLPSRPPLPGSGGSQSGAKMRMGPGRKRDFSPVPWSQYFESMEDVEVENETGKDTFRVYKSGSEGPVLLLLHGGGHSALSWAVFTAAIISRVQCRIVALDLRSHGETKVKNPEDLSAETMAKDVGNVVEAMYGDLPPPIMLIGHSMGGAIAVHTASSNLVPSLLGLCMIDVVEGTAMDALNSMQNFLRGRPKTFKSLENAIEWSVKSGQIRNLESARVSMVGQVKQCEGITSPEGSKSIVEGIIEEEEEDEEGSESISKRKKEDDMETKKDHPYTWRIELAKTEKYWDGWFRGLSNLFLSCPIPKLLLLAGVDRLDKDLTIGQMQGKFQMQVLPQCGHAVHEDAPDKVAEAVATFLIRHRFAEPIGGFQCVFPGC

[6] = NIH-3T3 fibroblast cytotoxicity, dose response, cytotoxicity control, cell-based, fluorescence, Alamar Blue, secondary assay (AID 2327); format: functional;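 note: NIH-3T3 mouse fibroblasts cultured with fluconazole at 8 µg/mL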
[7] = insulin promoter down-regulators in MIN6 cells, imaging, high-content screening, mouse beta cells (AID 1628); format: functional
[8] = tested on: Streptococcus sp. 'group A'; assay: growth inhibition of control SK(-) GAS strain, dose response, counter-screen for streptokinase expression inhibitor project, luminescence, kanamycin, BacTiterGlo, confirmation (AID 1900); format: functional, organism-based
[9] = cytotoxicity in MIN6 insulinoma cells, dose response, cytotoxicity control, cell-based, mouse insulinoma (AID 2122); format: functional;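 note: confirmatory high-throughput counterscreen run to flag cytotoxic compounds; mouse MIN-6 beta cells carrying an insulin promoter eGFP reporter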
[10] = C. albicans growth with fluconazole, confirmation, fluorescence, retest (AID 2467); format: functional, cell-based
[11] = inhibitors of intracellular T. cruzi replication, confirmation, NIH3T3 host cells, beta-gal luminescence (AID 2044); format: functional, cell-based;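 note: intracellular parasites grown in NIH/3T3 mouse fibroblasts as host cells; luminescent beta-galactosidase reporter signal from transgenic T. cruzi replicating inside host cells; inhibitors lower the luminescence signal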
[12] = cytotoxicity toward NIH3T3 fibroblasts, dose response, counter-screen, cell-based, ATP luminescence, mouse fibroblasts (AID 2010); format: functional;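 note: cells exposed to compound for about 90 hours before reading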
Streptococcus = assay: Group A Streptococcus viability loss, dose response, counter-screen for streptokinase expression inhibitor project, luminescence, BacTiterGlo (AID 1915); format: functional, organism-based;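 note: potency for reduction of bacterial viability or growth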
[13] = target: C-C chemokine receptor type 6 (Homo sapiens, UniProt P51684); assay: CCR6 receptor antagonists, dose response, cell-based, luminescent beta-arrestin readout (AID 504728); format: functional
Beta-galactosidase = Beta-galactosidase (Escherichia coli, UniProt Q8VNN2); assay: beta-galactosidase enzyme inhibitors and activators, dose response, artefact control for CCR6 antagonist project, biochemical, E. coli enzyme, set 3 (AID 504712); format: functional
Paired box protein Pax-8 = Paired box protein Pax-8 (Homo sapiens, UniProt Q06710); assay: inhibitors of PAX8-driven TPO luciferase reporter, dose response, RMG-I cells, cherry-pick (AID 687027); format: functional, cell-based;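 note: luciferase reporter driven by Pax8 target thyroperoxidase promoter measured by SteadyGlo luminescence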
[14] = non-specific cell cytotoxicity, dose response, cytotoxicity control for PAX8 inhibitor project, plate reader, dry powder samples (AID 743021); format: functional, cell-based
HeLa = assay: HeLa cell cytotoxicity, dose response, cytotoxicity control, 24 h, cherry-picked samples (AID 504726); format: functional, cell-based; conditions: Homo sapiens;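 note: potency for cytotoxicity as loss of luminescence signal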
[15] = target: T1, Polyadenylate-binding protein 1 (Homo sapiens, UniProt P11940); assay: PABP1 MLLE–PAM2 interaction inhibitors, dose response, miRNA deadenylation inhibitor project, biochemical, fluorescence polarization, Cy5-PAM2 peptide, secondary (AID 602260); format: functional; conditions: read-out: IC50_Mean
T1 sequence (P11940 whole entry): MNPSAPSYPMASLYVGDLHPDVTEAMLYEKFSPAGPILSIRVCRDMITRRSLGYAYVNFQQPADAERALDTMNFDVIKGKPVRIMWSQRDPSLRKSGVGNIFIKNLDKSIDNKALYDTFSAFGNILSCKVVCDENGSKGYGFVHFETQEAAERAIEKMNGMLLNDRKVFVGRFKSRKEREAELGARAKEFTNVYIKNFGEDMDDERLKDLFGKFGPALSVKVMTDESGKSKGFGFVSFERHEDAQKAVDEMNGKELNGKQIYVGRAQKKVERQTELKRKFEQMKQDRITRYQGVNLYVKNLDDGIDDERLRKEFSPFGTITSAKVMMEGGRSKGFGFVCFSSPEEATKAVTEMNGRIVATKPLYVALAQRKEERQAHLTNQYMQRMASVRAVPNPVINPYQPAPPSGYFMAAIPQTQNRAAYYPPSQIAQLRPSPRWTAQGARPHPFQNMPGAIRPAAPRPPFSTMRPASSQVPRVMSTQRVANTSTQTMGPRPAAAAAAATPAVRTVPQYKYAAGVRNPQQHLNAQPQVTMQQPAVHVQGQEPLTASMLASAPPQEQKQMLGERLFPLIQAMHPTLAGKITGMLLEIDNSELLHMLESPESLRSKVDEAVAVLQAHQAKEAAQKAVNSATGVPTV

[16] = target: T1, Polyadenylate-binding protein 1; assay: PABP1 MLLE–PAM2 binding inhibitor potency, dose response, biochemical, fluorescence polarization, FITC-PAM2 peptide (AID 602259); format: functional; conditions: read-out: IC50_Mean
[17] = ARNT/TACC3 interaction disruptors, potency, confirmation, biochemical, AlphaScreen, cherry-picked samples (AID 651703); format: functional, Homo sapiens;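 note: His-tagged ARNT PAS-B domain paired with GST-TACC3 E629A dimer coactivator fragment; potency of inhibitors that break up the complex and lower AlphaScreen signal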
[18] = THP-1 cell cytotoxicity, dose response, cytotoxicity control for Vif-APOBEC3G degradation inhibitor project, THP-1 cells (AID 1117359); format: functional; conditions: Human immunodeficiency virus 1, THP-1
Protein Rev = Protein Rev (Human immunodeficiency virus type 1 group M subtype B (isolate WMJ22)(HIV-1), UniProt P05866); assay: HIV-1 Rev-RRE RNA binding disruptors, dose response, biochemical, protein-RNA interaction (AID 842); design: species or system Human immunodeficiency virus 1
Chain of Protein Rev (P05866 whole entry): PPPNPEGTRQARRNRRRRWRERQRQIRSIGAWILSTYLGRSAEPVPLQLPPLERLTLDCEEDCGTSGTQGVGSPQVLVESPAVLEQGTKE

[19] = target: Metabotropic glutamate receptor 4 (Homo sapiens, UniProt Q14833); assay: Modulation of the Metabotropic Glutamate Receptor mGluR4: Potency at human mGluR4. Modulation of intracellular Ca2+ using Fluo-4, AM, in CHO expressing recombinant receptor [Related pubchem assays (depositor defined):AID2437, AID2807]; format: functional, cell-based
Chain of Metabotropic glutamate receptor 4 (Homo sapiens, UniProt Q14833) (Q14833 whole entry): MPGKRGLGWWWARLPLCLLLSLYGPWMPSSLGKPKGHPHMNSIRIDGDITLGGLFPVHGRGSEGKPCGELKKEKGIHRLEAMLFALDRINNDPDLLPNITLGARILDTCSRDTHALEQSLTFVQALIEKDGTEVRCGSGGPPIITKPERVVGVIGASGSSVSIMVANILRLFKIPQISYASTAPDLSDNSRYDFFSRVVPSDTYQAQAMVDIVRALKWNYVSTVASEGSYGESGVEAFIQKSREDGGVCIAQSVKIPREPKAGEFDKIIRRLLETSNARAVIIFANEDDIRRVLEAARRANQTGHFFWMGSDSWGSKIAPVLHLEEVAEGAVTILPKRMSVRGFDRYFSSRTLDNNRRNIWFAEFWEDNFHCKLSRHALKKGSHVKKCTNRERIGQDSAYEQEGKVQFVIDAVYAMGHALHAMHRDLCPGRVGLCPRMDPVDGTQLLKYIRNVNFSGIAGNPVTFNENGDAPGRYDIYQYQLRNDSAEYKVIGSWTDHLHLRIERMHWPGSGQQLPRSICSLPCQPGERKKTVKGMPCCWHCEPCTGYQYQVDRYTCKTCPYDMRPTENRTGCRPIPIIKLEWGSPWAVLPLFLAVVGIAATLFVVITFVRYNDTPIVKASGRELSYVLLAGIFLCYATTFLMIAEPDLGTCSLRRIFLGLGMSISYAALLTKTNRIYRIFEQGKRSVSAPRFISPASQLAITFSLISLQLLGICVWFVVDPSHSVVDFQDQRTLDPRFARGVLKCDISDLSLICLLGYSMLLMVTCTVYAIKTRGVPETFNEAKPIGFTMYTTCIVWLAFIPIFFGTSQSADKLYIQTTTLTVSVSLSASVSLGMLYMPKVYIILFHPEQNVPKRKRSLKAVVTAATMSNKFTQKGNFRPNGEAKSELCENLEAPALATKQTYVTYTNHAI

[20] = target: Metabotropic glutamate receptor 4 (Rattus norvegicus, UniProt P31423); assay: Modulation of the Metabotropic Glutamate Receptor mGluR4: Rat PAM Potency. [Related pubchem assays (depositor defined):AID2437, AID2807]; format: functional

Structure (SMILES): O=C(O)c1ccccc1NC(c1ccccc1)c1ccc(Cl)cc1 (stereo not drawn)
- IC50 (Staphylococcus aureus): 0.448 µM (active)

Structure (SMILES): Cc1cccc(NC(=O)Nc2cc(C)on2)c1
- AC50 [1]: 7.61 µM (active)

Structure (SMILES): COc1cccc(C(c2cc3c(cc2O)OCO3)N2CCCC2)c1O (stereo not drawn)
- IC50 [2]: < 2.5 µM (not active)

Structure (SMILES): Cc1cccc(NC(=O)CCCOc2cc(=O)n(C)c3ccccc23)n1
- EC50 (Wee1-like protein kinase): > 49.7 µM (inactive)
- EC50 [3]: > 49.7 µM (inactive)

Structure (SMILES): Cc1ccc(-n2nc(C)c3c2C(Br)C(C)(C)CC3=O)nc1 (stereo not drawn)
- AC50 [4]: 43.3 µM (active)

Structure (SMILES): N#C/C(=C\c1cccn1S(=O)(=O)c1ccccc1)C(=O)c1ccccc1
- IC50 [5]: > 20 µM (inactive)

Structure (SMILES): COc1cccc(/C=N/Nc2nc(Nc3ccc([N+](=O)[O-])cc3)nc(N3CCCC3)n2)c1O
- EC50 [6]: 4.69 µM (active)
- IC50 [7]: 2.8 µM (active)
- EC50 [8]: 3.77 µM (active)
- IC50 [9]: 2.71 µM (active)
- EC50 [10]: > 38 µM (not active)
- EC50 [11]: 0.866 µM (active)
- EC50 [12]: 8.48 µM (active)
- EC50 (Streptococcus): 12.1 µM (active)
- IC50 [13]: 1.64 µM (active)
- IC50 (Beta-galactosidase): > 66.6 µM (inactive)
- AC50 (Paired box protein Pax-8): 5.65 µM (active)
- AC50 [14]: 20.9 µM (active)

Structure (SMILES): CN(Cc1cnc2nc(N)nc(N)c2n1)c1ccc(C(=O)NC(CCC(=O)O)C(=O)O)cc1 (stereo not drawn)
- AC50 (HeLa): 0.629 µM (active)
- IC50 [15]: 52.1 µM (inactive)
- IC50 [16]: 41.6 µM (inactive)
- AC50 [17]: 74.5 µM (active)
- CC50 [18]: 0.23 µM (active)

Structure (SMILES): COc1ccc(Nc2nc(N)nc(CN(C)C3CCCCC3)n2)cc1
- IC50 (Protein Rev): > 79.4 µM (not active)
- AC50 [17]: 90.7 µM (active)

Structure (SMILES): O=C(Nc1ccc2c(c1)OCO2)c1ccccn1
- EC50 [19]: 9.66 µM (active)
- EC50 [20]: 7.17 µM (active)
